Assay results: US20200163984A1, “USE OF ISOVALERYL SPIRAMYCIN I, II AND/OR III IN MANUFACTURING MEDICAMENT FOR TREATING AND/OR PREVENTING TUMOR, AND MEDICAMENT” (SHENYANG FUYANG PHARMACEUTICAL TECHNOLOGY CO., LTD., priority 2017, published 2020)
Values after ≈ are worked out from the molar mass of the structure shown.

Tests used:
[1] = system: human bladder cancer cell T-24; conditions: T-24, MTT
Description: (§1) The purpose of the assay is to evaluate the in vitro cell proliferation inhibition or cytotoxic activity of a tested sample.
(§2) Human breast cancer cells MCF-7 and MDA-MB-231, human hepatoma cells HepG2, human non-small cell lung cancer cells A549, human large cell lung cancer cells H460 and H1299, human renal clear cell adenocarcinoma cell 786-0, human renal cell adenocarcinoma cell 769-P, human glioma cell U251, human glioblastoma cell A172, human tissue lymphoma cell U937, human cervical cancer cell HeLa, human prostate cancer cell PC3, human pancreatic cancer cell PANC-1, human esophageal cancer cell TE-1, human gastric adenocarcinoma cell SGC7901, human colon cancer cell HT-29, human promyelocytic leukemia cell HL-60, human thyroid cancer cell TPC-1, and human bladder cancer cell T-24.
(§3) The inhibition rate of the medicament on tumor cell growth is calculated according to the following formula:
(§4) Tumor cell growth inhibition rate (%)=[A492 (negative control)−A492 (dosing group)]/A492 (negative control)×100%
(§5) And the half-inhibitory concentration (IC50) of the sample is determined therefrom.

[2] = system: human thyroid cancer cell TPC-1; conditions: TPC-1, MTT
Description: as §1, §2, §3, §4, §5

[3] = system: transplanted tumor of human esophageal cancer cell TE-1; test: TE-1 transplanted tumor in nude mice
Method: (§6) Then cell concentration was adjusted to 1×10^7/ml with matrigel, then each nude mouse was inoculated subcutaneously with 0.2 ml of cells at its right armpit and recorded as the first day of inoculation. When the tumor grows to be greater than or equal to 100 mm^3, the mice were randomly divided into 11 groups with 6 mice in each group: a model group, a cyclophosphamide group, isovaleryl spiramycin I groups with doses of 25, 50 and 100 mg/kg, isovaleryl spiramycin II groups with doses of 25, 50 and 100 mg/kg, and isovaleryl spiramycin III groups with doses of 25, 50 and 100 mg/kg. Each group was continuously administered intragastrically for 30 days with a dose of 20 ml/kg. The mice were sacrificed the next day after drug withdrawal and the indicators were tested. The long diameter and short diameter of the tumor, and the body weight of each mouse were recorded every 3 days from drug administration to nude mouse sacrifice.
(§7) The body weight of the nude mice and the long diameter (a) and short diameter (b) of the transplanted tumor were measured every 3 days, and the tumor volume (v), relative tumor volume (RTV) and relative tumor proliferation rate (T/C) are calculated respectively according to the following formulas, wherein V=a×b^2/2; RTV=V/V0 (V0 is the tumor volume before administration, V is the tumor volume before sacrifice), and T/C (%)=treatment group RTV/model control group RTV×100%.
(§8) Each mouse was weighed and sacrificed. After the tumor was completely stripped off from the body of the mouse, the non-tumor tissues such as blood stains and fat were removed to weigh the tumor and calculate the tumor growth inhibition rate. The average tumor weight of each group of mice is used as an indicator of efficacy. Tumor growth inhibition rate (%)=(1−the average tumor weight of the treatment group/the average tumor weight of the model group)×100%.

[4] = system: transplanted tumor of HT-29 cells; test: HT-29 transplanted tumor in nude mice; conditions: for Inhibition Rate (%) / Tumor Weight: HT-29 nude mice; for Tumor Volume (mm3) (d30): d 30
Method: as §6, with “group:” for “group: a model group, a cyclophosphamide group,”
as §7, §8

[5] = TE-1, 12.5 mg/kg (low dose) i.g. 30 days
[6] = TE-1, 25 mg/kg (medium dose) i.g. 30 days
[7] = TE-1, 50 mg/kg (high dose) i.g. 30 days
[8] = HT-29, high dose (100 mg/kg in method) i.g. 30 days
[9] = HT-29, low dose (25 mg/kg in method) i.g. 30 days
[10] = HT-29, medium dose (50 mg/kg in method) i.g. 30 days

COC1C(OC(C)=O)CC(=O)OC(C)CC=CC=CC(OC2CCC(N(C)C)C(C)O2)C(C)CC(CC=O)C1OC1OC(C)C(OC2CC(C)(O)C(OC(=O)CC(C)C)C(C)O2)C(N(C)C)C1O (stereo not drawn) [Isovaleryl spiramycin II, isovaleryl spiramycin II]
IC50 [1]: 39.85 ± 3.26 µg/mL (≈ 41.1 µM) | IC50 [2]: 45.37 ± 2.90 µg/mL (≈ 46.8 µM) | Inhibition Rate (tumor growth inhibition rate) [3, 5]: 24.87% | Relative Tumor Proliferation Rate (T/C) [3, 5]: 70.32% | Relative Tumor Volume (RTV) [3, 5]: 7.92 ± 6.86 | Tumor Volume (d 1) [3, 5]: 134.33 ± 57.77 mm3 | Tumor Volume (d 30) [3, 5]: 1027.37 ± 363.55 mm3 | Tumor Weight [3, 5]: 1.18 ± 0.60 g | Inhibition Rate (tumor growth inhibition rate) [3, 6]: 43.78% | Relative Tumor Proliferation Rate (T/C) [3, 6]: 50.51% | Relative Tumor Volume (RTV) [3, 6]: 6.99 ± 5.39 | Tumor Volume (d 1) [3, 6]: 195.76 ± 76.95 mm3 | Tumor Volume (d 30) [3, 6]: 1075.36 ± 720.20 mm3 | Tumor Weight [3, 6]: 0.88 ± 0.46 g | Inhibition Rate (tumor growth inhibition rate) [3, 7]: 72.48% | Relative Tumor Proliferation Rate (T/C) [3, 7]: 36.49% | Relative Tumor Volume (RTV) [3, 7]: 6.97 ± 7.85 | Tumor Volume (d 1) [3, 7]: 143.85 ± 16.25 mm3 | Tumor Volume (d 30) [3, 7]: 570.92 ± 293.97 mm3 | Tumor Weight [3, 7]: 0.43 ± 0.26 g | tumor volume and relative tumor volume compared with the model group ([3]; TE-1, low, medium and high doses, P<0.05): significantly lower | mouse weight compared with the model group ([3]; mouse, in vivo): no significant changes | Relative Tumor Proliferation Rate (T/C) [4, 8]: 44.05% | tumor growth inhibition rate [4, 8]: 55.74% | Relative Tumor Proliferation Rate (T/C) [4, 9]: 84.18% | tumor growth inhibition rate [4, 9]: 16.24% | tumor volume and relative tumor volume compared with the model group ([4]; HT-29, low, medium and high doses, P<0.05): significantly lower | Relative Tumor Proliferation Rate (T/C) [4, 10]: 79.34% | tumor growth inhibition rate [4, 10]: 32.41% | Inhibition Rate (%) ([4]; 25 mg/kg): 16.24% | Tumor Weight ([4]; 25 mg/kg): 1.97 ± 0.34 g | Inhibition Rate (%) ([4]; 50 mg/kg): 32.41% | Tumor Weight ([4]; 50 mg/kg): 1.59 ± 0.49 g | Inhibition Rate (%) ([4]; 100 mg/kg): 55.74% | Tumor Weight ([4]; 100 mg/kg): 1.04 ± 0.40 g | Relative Tumor Proliferation Rate (T/C) ([4]; dose 25 mg/kg): 84.18% | Relative Tumor Volume (RTV) ([4]; dose 25 mg/kg): 12.13 ± 3.40 | Tumor Volume (mm3) (d 1) ([4]; dose 25 mg/kg): 163.26 ± 38.80 mm3 | Tumor Volume (mm3) (d30) ([4]; dose 25 mg/kg): 1885.85 ± 219.49 mm3 | Relative Tumor Proliferation Rate (T/C) ([4]; dose 50 mg/kg): 79.34% | Relative Tumor Volume (RTV) ([4]; dose 50 mg/kg): 11.43 ± 5.13 | Tumor Volume (mm3) (d 1) ([4]; dose 50 mg/kg): 142.56 ± 22.44 mm3 | Tumor Volume (mm3) (d30) ([4]; dose 50 mg/kg): 1568.80 ± 603.77 mm3 | Relative Tumor Proliferation Rate (T/C) ([4]; dose 100 mg/kg): 44.05% | Relative Tumor Volume (RTV) ([4]; dose 100 mg/kg): 6.35 ± 2.87 | Tumor Volume (mm3) (d 1) ([4]; dose 100 mg/kg): 156.45 ± 37.20 mm3 | Tumor Volume (mm3) (d30) ([4]; dose 100 mg/kg): 921.49 ± 299.38 mm3 | mouse weight compared with the model group ([4]; mouse, in vivo): no significant changes | Body Weight (g) (d1) ([4]; mouse, in vivo, 25 mg/kg): 21.04 ± 1.28 g | Body Weight (g) (d30) ([4]; mouse, in vivo, 25 mg/kg): 20.88 ± 1.29 g | Body Weight (g) (d1) ([4]; mouse, in vivo, 50 mg/kg): 21.36 ± 1.35 g | Body Weight (g) (d30) ([4]; mouse, in vivo, 50 mg/kg): 20.9 ± 1.29 g | Body Weight (g) (d1) ([4]; mouse, in vivo, 100 mg/kg): 20.80 ± 0.89 g | Body Weight (g) (d30) ([4]; mouse, in vivo, 100 mg/kg): 21.53 ± 1.08 g
